Experimental data reported in ChEMBL document CHEMBL4330117, “Synthesis, biological evaluation and molecular docking of benzimidazole grafted benzsulfamide-containing pyrazole ring derivatives as novel tubulin polymerization inhibitors” (Bioorg Med Chem, 2019).
Active and inactive are the calls of the source. The rule behind the calls is not given here.

Assays:
A549 = experiment: Antiproliferative activity against human A549 cells after 24 hrs by MTT assay; assay type: functional, cell-based; conditions: A549, 24 h
HeLa = experiment: Antiproliferative activity against human HeLa cells after 24 hrs by MTT assay; assay type: functional, cell-based
HepG2 = experiment: Antiproliferative activity against human HepG2 cells after 24 hrs by MTT assay; assay type: functional, cell-based; conditions: HepG2, 24 h
MCF7 = experiment: Antiproliferative activity against human MCF7 cells after 24 hrs by MTT assay; assay type: functional, cell-based; conditions: MCF7, 24 h
Tubulin (Bos taurus) [1] = biological target: T1, Tubulin (Bos taurus) (UniProt Q6B856+Q862L2+Q862F3); experiment: Inhibition of [3H]colchicine binding to bovine brain tubulin at 5 uM
Tubulin (Bos taurus) [2] = biological target: T1, Tubulin (Bos taurus); experiment: Inhibition of vinblastine binding to bovine brain tubulin at 5 uM
[3] = Cytotoxicity against HEK293T cells after 24 hrs by MTT assay; assay type: cell-based, HEK-293T; conditions: human
[4] = Cytotoxicity against mouse primary hepatocytes after 24 hrs by MTT assay; assay type: cell-based, Hepatocyte
Rattus norvegicus = experiment: Antitumor activity against rat hepatoma H22 cells implanted in mouse assessed as reduction in tumor volume at 3 mg/kg, ip measured after 8 to 28 days; assay type: functional, organism-based
[5] = Toxicity in mouse xenografted with rat H22 cells assessed as weight loss at 3 mg/kg, ip measured after 28 days; assay type: organism-based; conditions: in vivo, 672 h

IC50 (A549) [µM] | IC50 (HeLa) [µM] | IC50 (HepG2) [µM] | IC50 (MCF7) [µM] | inhibition (Tubulin (Bos taurus) [1]) [%] | inhibition (Tubulin (Bos taurus) [2]) [%] | SMILES | CC50 at 24 h [3] [µM] | CC50 at 24 h [4] [µM] | Activity (Rattus norvegicus) | Activity [5]
3.62 | 4.67 | 6.03 | 6.33 | 44 | -0.03 to 2.1 | FC(F)(F)c1ccc(-c2nn(-c3ccccc3)cc2-c2nc3ccccc3[nH]2)cc1 | 167 | 159 | – | –
1.03 | 1.17 | 1.34 | 1.37 | 51 | -0.04 to 0.3 | O=[N+]([O-])c1ccc(S(=O)(=O)n2c(-c3cn(-c4ccccc4)nc3-c3ccc(F)cc3)nc3ccccc32)cc1 | 189 | > 300 | – | –
4.01 | 4.95 | 6.26 | 7.26 | 40 | 0.05 | Cc1ccc(-c2nn(-c3ccccc3)cc2-c2nc3ccccc3[nH]2)cc1 | 187 | > 300 | – | –
1.69 | 1.86 | 2.16 | 2.47 | 52 | -0.07 to 2.1 | O=S(=O)(c1ccc(Br)cc1)n1c(-c2cn(-c3ccccc3)nc2-c2ccc(C(F)(F)F)cc2)nc2ccccc21 | 185 | 167 | – | –
2.56 | 3.06 | 3.93 | 4.32 | 40 | 0.73 | O=S(=O)(c1ccc(Cl)cc1)n1c(-c2cn(-c3ccccc3)nc2-c2ccc(C(F)(F)F)cc2)nc2ccccc21 | 75.3 | 173 | – | –
0.46 | 0.48 | 0.52 | 0.57 | 66 | 0.18 | Cc1ccc(-c2nn(-c3ccccc3)cc2-c2nc3ccccc3n2S(=O)(=O)c2ccc(C)cc2)cc1 | 79.3 | 102 | – | –
1.72 | 2.04 | 2.55 | 2.63 | 51 | 3.02 | O=S(=O)(c1ccc(Br)cc1)n1c(-c2cn(-c3ccccc3)nc2-c2ccc(F)cc2)nc2ccccc21 | 239 | > 300 | – | –
1.28 | 1.43 | 1.68 | 1.58 | 50 | 0.51 | O=S(=O)(c1ccc(C(F)(F)F)cc1)n1c(-c2cn(-c3ccccc3)nc2-c2ccc(F)cc2)nc2ccccc21 | 241 | 55.3 | – | –
2.37 | 2.44 | 3.52 | 3.67 | 48 | 1.32 | O=S(=O)(c1ccc(F)cc1)n1c(-c2cn(-c3ccccc3)nc2-c2ccc(F)cc2)nc2ccccc21 | 218 | 174 | – | –
0.55 | 0.68 | 0.72 | 0.69 | 62 | 0.05 | O=S(=O)(c1ccccc1)n1c(-c2cn(-c3ccccc3)nc2-c2ccc(F)cc2)nc2ccccc21 | 96.3 | 231 | – | –
1.86 | 2.34 | 3.04 | 3.16 | 48 | -0.38 to 1.4 | Cc1ccc(-c2nn(-c3ccccc3)cc2-c2nc3ccccc3n2S(=O)(=O)c2ccc(Br)cc2)cc1 | 159 | > 300 | – | –
0.35 | 0.39 | 0.47 | 0.53 | 77 | 2.98 | COc1ccc(S(=O)(=O)n2c(-c3cn(-c4ccccc4)nc3-c3ccc(F)cc3)nc3ccccc32)cc1 | 37.3 | 105 | – | –
3.55 | 4.06 | 5.52 | 5.93 | 38 | 0.24 | Cc1ccc(-c2nn(-c3ccccc3)cc2-c2nc3ccccc3n2S(=O)(=O)c2ccc(Cl)cc2)cc1 | 167 | 216 | – | –
0.86 | 0.97 | 1.12 | 1.24 | 54 | 0.05 | O=S(=O)(c1ccc(C(F)(F)F)cc1)n1c(-c2cn(-c3ccccc3)nc2-c2ccc(C(F)(F)F)cc2)nc2ccccc21 | 63.2 | 137 | – | –
0.2 | 0.32 | 0.41 | 0.43 | 88 | 0.62 | Cc1ccc(C)c(S(=O)(=O)n2c(-c3cn(-c4ccccc4)nc3-c3ccc(F)cc3)nc3ccccc32)c1 | 54.2 | 122 | – | –
3.17 | 3.45 | 4.23 | 4.96 | 48 | -2.09 to 2.7 | O=S(=O)(c1ccc(Cl)cc1)n1c(-c2cn(-c3ccccc3)nc2-c2ccc(F)cc2)nc2ccccc21 | 93.1 | 231 | – | –
1.46 | 1.52 | 1.93 | 2.34 | 55 | 0.21 | Cc1ccc(-c2nn(-c3ccccc3)cc2-c2nc3ccccc3n2S(=O)(=O)c2ccc(C(F)(F)F)cc2)cc1 | 182 | 89.3 | – | –
0.48 | 0.56 | 0.59 | 0.63 | 61 | 0.52 | O=S(=O)(c1ccccc1)n1c(-c2cn(-c3ccccc3)nc2-c2ccc(C(F)(F)F)cc2)nc2ccccc21 | 128 | 186 | – | –
0.27 | 0.37 | 0.46 | 0.51 | 82 | 0.07 | Cc1ccc(-c2nn(-c3ccccc3)cc2-c2nc3ccccc3n2S(=O)(=O)c2cc(C)ccc2C)cc1 | 82.2 | 231 | – | –
0.17 | 0.25 | 0.37 | 0.42 | 85 | 0.03 | COc1ccc(S(=O)(=O)n2c(-c3cn(-c4ccccc4)nc3-c3ccc(C(F)(F)F)cc3)nc3ccccc32)cc1 | > 300 | 87.4 | – | –
0.79 | 0.95 | 1.07 | 1.13 | 63 | 0.14 | O=[N+]([O-])c1ccc(S(=O)(=O)n2c(-c3cn(-c4ccccc4)nc3-c3ccc(C(F)(F)F)cc3)nc3ccccc32)cc1 | 163 | 178 | – | –
0.76 | 0.82 | 0.96 | 0.83 | 74 | 0.21 | Cc1ccc(-c2nn(-c3ccccc3)cc2-c2nc3ccccc3n2S(=O)(=O)c2ccccc2)cc1 | 138 | 189 | – | –
3.24 | 3.67 | 5.06 | 5.27 | 53 | 0.07 | Cc1ccc(-c2nn(-c3ccccc3)cc2-c2nc3ccccc3n2S(=O)(=O)c2ccc(F)cc2)cc1 | 128 | 167 | – | –
1.74 | 2.19 | 2.73 | 3.12 | 54 | 0.65 | O=S(=O)(c1ccc(F)cc1)n1c(-c2cn(-c3ccccc3)nc2-c2ccc(C(F)(F)F)cc2)nc2ccccc21 | 157 | 83.3 | – | –

SMILES | IC50 (A549) [µM] | IC50 (HeLa) [µM] | IC50 (HepG2) [µM] | IC50 (MCF7) [µM] | inhibition (Tubulin (Bos taurus) [1]) [%] | inhibition (Tubulin (Bos taurus) [2]) [%] | CC50 at 24 h [3] [µM] | CC50 at 24 h [4] [µM] | Activity (Rattus norvegicus) | Activity [5]
COc1cc2c(c(OC)c1OC)-c1ccc(OC)c(=O)cc1[C@@H](NC(C)=O)CC2 [COLCHICINE] | 0.22 | 0.36 | 0.42 | 0.44 | – | – | 129 | 153 | – | –
COc1ccc(/C=C\c2cc(OC)c(OC)c(OC)c2)cc1O [COMBRETASTATIN A4] | 0.16 | 0.24 | 0.33 | 0.18 | – | – | 162 | 178 | Active | Toxic
